From patent US20100035896A1, “Combination of N-(3-methoxy-5-methylpyrazin-2-yl)-2-(4-[1,3,4-oxadiazol-2-yl]phenyl)pyridine-3-sulphonamide and an anti-mitotic cytotoxic agent” (ASTRAZENECA AB, priority 2004, published 2010)
Ends that are not written are not given here.

Legend:
[1] = test system: Human prostate tumour cells (PPC-1); assay: Viable cell numbers of prostate tumour cells by MTT assay; assay type: cell-based; settings: PPC-1 cells, FIG. 3; for numbers of viable prostate cells remaining in culture: cytotoxic alone at 10^-6, 10^-8 or 10^-10 M for 24 hours
Text: ** OVCA 433 was established from ascites obtained from a patient with advanced serous ovarian adenocarcinoma (Tsa, S W et al., (1995) Exp. Cell Res. 218: 499-507) and HEY was derived from a xenograft of a peritoneal deposit of a cystoadeonocarcinoma of the ovary (Buick, R. N. et al., (1985) Cancer Research 45: 3668-3676). PPC-1 cells were originally derived from a human prostate tumour and were obtained from the laboratory of Dr. J. Nelson, University of Pittsburgh).
(§1) In vitro studies in ovarian cells: Human ovarian tumour cell lines (OVCA 433 and HEY) were maintained in culture media containing serum until sufficient numbers were available for experimentation. At this time the cells were transferred into media without serum. After 24 hours of serum starvation, cells were treated with either Compound (I) (1 μM) or paclitaxel (60 nM), or Compound (I)+paclitaxel. Following treatment for 24 hours, apoptosis was measured by a standard cell detection ELISA Plus kit (Boehringer Manheim). In vitro studies in prostate cells: Human prostate tumour cells (PPC-1) were maintained in culture medium containing serum until sufficient numbers were available for experimentation. After this time cells were transferred into media without serum. After 23 hours of serum starvation cells were treated with either endothelin 1 (10^−7M) or endothelin 1+Compound (I) at 10^−7M. An additional group of cells received vehicle control alone. One hour later cells were treated with paclitaxel or docetaxel at either 10^−6M, 10^−8M or 10^−10M for 24 hours. At the end of this 24 hour period, viable cell numbers were measured by a standard MTT assay (Mossman, J Inmunol Methods. (1983) 65, 55-63). In vivo studies: Athymic mice were given subcutaneous injections of 1.5×10^6 HEY cells into the flank. After 7 days, when established tumours had formed, mice were randomized to 4 treatment groups with 10 mice in each group. One group was treated with Compound (I) given by daily intraperitoneal injections (10 mg/kg/day) for 21 days. A second group received intravenous injections of paclitaxel (20 mg/kg) every 4 days for 3 doses. A third group received both paclitaxel and Compound (I) and a fourth group was given injections in the same way using vehicle alone. The experiments were replicated three times.

[2] = test system: HEY ovarian cell xenografts; assay: Growth of subcutaneous HEY ovarian carcinoma xenografts in athymic mice; assay type: in vivo; settings: Compound (I) 10 mg/kg/day i.p. for 21 days, paclitaxel 20 mg/kg i.v. every 4 days for 3 doses, alone or both, FIG. 2
Method: as §1, with “After 7 days, when established tumours had formed, mice were randomized to 4 treatment groups with 10 mice in each group. One group was treated with Compound (I) given by daily intraperitoneal injections (10 mg/kg/day) for 21 days. A second group received intravenous injections of paclitaxel (20 mg/kg) every 4 days for 3 doses. A third group received both paclitaxel and Compound (I) and a fourth group was given injections in the same way using vehicle alone. The experiments were replicated three times.” left out

[3] = test system: Human ovarian tumour cell lines (OVCA 433 and HEY); assay: Apoptosis in serum-starved ovarian tumour cell lines, cell detection ELISA Plus kit; assay type: cell-based; settings: HEY and OVCA 433 cells, 24 h serum starvation, 24 h treatment; Compound (I) 1 μM, paclitaxel 60 nM, alone or combined; FIG. 1
Text: To evaluate the effect of Compound (I) in combination with an anti-mitotic cytotoxic agent (paclitaxel) on the growth of various carcinoma cells, we utilised two established human ovarian cell lines (HEY and OVCA 433**) which express functional endothelin A (ETa) receptors and secrete high levels of endothelin-1 (ET-1). ET-1 is an anti-apoptotic factor in many cell types, having this effect via ETa receptors. ** OVCA 433 was established from ascites obtained from a patient with advanced serous ovarian adenocarcinoma (Tsa, S W et al., (1995) Exp. Cell Res. 218: 499-507) and HEY was derived from a xenograft of a peritoneal deposit of a cystoadeonocarcinoma of the ovary (Buick, R. N. et al., (1985) Cancer Research 45: 3668-3676). PPC-1 cells were originally derived from a human prostate tumour and were obtained from the laboratory of Dr. J. Nelson, University of Pittsburgh). In vitro studies in ovarian cells: Human ovarian tumour cell lines (OVCA 433 and HEY) were maintained in culture media containing serum until sufficient numbers were available for experimentation. […] Following treatment for 24 hours, apoptosis was measured by a standard cell detection ELISA Plus kit (Boehringer Manheim). […] At the end of this 24 hour period, viable cell numbers were measured by a standard MTT assay (Mossman, J Inmunol Methods. (1983) 65, 55-63). […]

For COc1nc(C)cnc1NS(=O)(=O)c1cccnc1-c1ccc(-c2nnco2)cc1 [Compound (I), N-(3-methoxy-5-methylpyrazin-2-yl)-2-(4-[1,3,4-oxadiazol-2-yl]phenyl)pyridine-3-sulphonamide], the “effect on the endothelin-1 reversal of cytotoxic-induced reduction in viable cell number” value ([1]; endothelin 1 10^-7 M + Compound (I) 10^-7 M, one hour before paclitaxel or docetaxel) was “blocked”, the “inhibition of HEY ovarian cell xenografts (tumour growth)” value [2] was “significant inhibition” and the effect on apoptosis [3] was “no statistically significant effects”.

In the case of CC(=O)O[C@H]1C(=O)[C@@]2(C)[C@H]([C@H](OC(=O)c3ccccc3)[C@]3(O)C[C@H](OC(=O)[C@H](O)[C@@H](NC(=O)c4ccccc4)c4ccccc4)C(C)=C1C3(C)C)[C@]1(OC(C)=O)CO[C@@H]1C[C@@H]2O [paclitaxel, Paclitaxel], the “numbers of viable prostate cells remaining in culture” value [1] is reported as “significantly reduced”, the “inhibition of HEY ovarian cell xenografts (tumour growth)” value [2] is reported as “degree of inhibition was similar” and the effect on apoptosis [3] is reported as “no statistically significant effects”.

In the case of “endothelin-1 (CSCSSLMDKECVYFCHLDIIW; ends and bridges not checked; cysteine pairing not given here; UniProt P05305 53-73, looked up) [endogenous 21 amino acid peptide, anti-apoptotic factor acting via ETa receptors]”, the “effect on the paclitaxel- or docetaxel-induced reduction in viable cell number” value ([1]; endothelin 1 10^-7 M given one hour before paclitaxel or docetaxel) is reported as “reversed”.

CC(=O)O[C@@]12CO[C@@H]1C[C@H](O)[C@@]1(C)C(=O)[C@H](O)C3=C(C)[C@@H](OC(=O)[C@H](O)[C@@H](NC(=O)OC(C)(C)C)c4ccccc4)C[C@@](O)([C@@H](OC(=O)c4ccccc4)[C@H]21)C3(C)C [docetaxel, Docetaxel] was tested, and the “numbers of viable prostate cells remaining in culture” value [1] was “significantly reduced”.
